Source: ChEMBL document CHEMBL1145279, “Discovery and development of dimeric podocarpic acid leads as potent agonists of liver X receptor with HDL cholesterol raising activity in mice and hamsters” (Bioorg Med Chem Lett, 2005)

What was measured:
[1] = target: T1, Oxysterols receptor LXR-alpha (Homo sapiens, UniProt Q13133); experiment: Displacement of [3H2]-F3-methyl AA (1) from liver X receptor-alpha in SPA assay
T1 sequence (Q13133 whole entry): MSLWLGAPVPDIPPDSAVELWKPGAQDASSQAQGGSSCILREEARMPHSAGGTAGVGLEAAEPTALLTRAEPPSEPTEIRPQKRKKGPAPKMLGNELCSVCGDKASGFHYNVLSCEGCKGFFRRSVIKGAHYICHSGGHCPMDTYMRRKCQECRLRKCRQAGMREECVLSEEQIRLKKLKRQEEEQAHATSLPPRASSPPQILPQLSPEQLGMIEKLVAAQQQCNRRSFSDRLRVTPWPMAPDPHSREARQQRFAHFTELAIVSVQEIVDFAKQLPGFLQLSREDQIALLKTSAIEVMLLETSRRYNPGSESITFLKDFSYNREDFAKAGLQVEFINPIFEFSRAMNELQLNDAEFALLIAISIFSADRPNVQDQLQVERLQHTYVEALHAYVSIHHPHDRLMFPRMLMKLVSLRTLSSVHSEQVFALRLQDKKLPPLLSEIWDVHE

[2] = target: T1, Oxysterols receptor LXR-alpha; experiment: Effective concentration for cofactor association with recombinant liver X receptor-alpha
[3] = target: T1, Oxysterols receptor LXR-alpha; experiment: Effective concentration against liver X receptor-alpha in HEK293 cell transactivation assay; assay type: cell-based
[4] = target: T2, Oxysterols receptor LXR-beta (Homo sapiens, UniProt P55055); experiment: Effective concentration for cofactor association with recombinant liver X receptor-beta
T2 sequence (P55055 whole entry): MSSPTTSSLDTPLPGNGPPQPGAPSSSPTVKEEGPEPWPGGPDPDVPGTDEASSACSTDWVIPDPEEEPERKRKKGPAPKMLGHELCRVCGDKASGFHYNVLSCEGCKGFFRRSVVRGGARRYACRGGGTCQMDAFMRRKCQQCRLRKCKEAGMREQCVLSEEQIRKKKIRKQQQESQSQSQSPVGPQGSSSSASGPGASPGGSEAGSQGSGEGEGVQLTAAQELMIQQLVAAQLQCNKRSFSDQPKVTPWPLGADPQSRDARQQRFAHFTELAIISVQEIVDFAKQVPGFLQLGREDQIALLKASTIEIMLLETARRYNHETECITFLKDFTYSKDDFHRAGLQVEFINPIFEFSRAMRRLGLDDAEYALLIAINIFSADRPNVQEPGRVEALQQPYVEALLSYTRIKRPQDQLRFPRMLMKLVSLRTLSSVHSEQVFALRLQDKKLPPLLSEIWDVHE

[5] = target: T2, Oxysterols receptor LXR-beta; experiment: Displacement of [3H2]-F3-methyl AA (1) from liver X receptor-beta in SPA assay
[6] = target: T1, Oxysterols receptor LXR-alpha; experiment: Displacement of [3H2]-F3-methyl AA (1) from liver X receptor-alpha in SPA assay; Not active
[7] = target: T2, Oxysterols receptor LXR-beta; experiment: Displacement of [3H2]-F3-methyl AA (1) from liver X receptor-beta in SPA assay; Not active
[8] = target: T1, Oxysterols receptor LXR-alpha; experiment: Effective concentration for cofactor association with recombinant liver X receptor-alpha; Not active
[9] = target: T2, Oxysterols receptor LXR-beta; experiment: Effective concentration for cofactor association with recombinant liver X receptor-beta; Not active
[10] = target: T3, Oxysterols receptor LXR-alpha (Homo sapiens) (UniProt Q13133); experiment: Percent inhibition of [3H2]-F3-methyl AA (1) binding to liver X receptor-alpha at 100 uM
T3 sequence (whole entry): T1 sequence (Q13133 whole entry)

[11] = target: T4, Oxysterols receptor LXR-beta (Homo sapiens) (UniProt P55055); experiment: Percent inhibition of [3H2]-F3-methyl AA (1) binding to liver X receptor-beta at 100 uM
T4 sequence (whole entry): T2 sequence (P55055 whole entry)

[12] = target: T2, Oxysterols receptor LXR-beta; experiment: Effective concentration against liver X receptor-beta in HEK293 cell transactivation assay; assay type: cell-based

Compound | IC50 [1] [nM] | EC50 [2] [nM] | EC50 [3] [nM] | EC50 [4] [nM] | IC50 [5] [nM] | IC50 [6] | IC50 [7] | EC50 [8] | EC50 [9] | also measured
CCCc1c(OCCCSc2ccc(CC(=O)O)cc2Cl)ccc2c(C(F)(F)F)noc12 | 35.4 | 35.4 | 1790 | – | – | – | – | – | – | EC50 ([3]; hek293): 1790 nM
C[C@]1(C(=O)O)CCC[C@]2(C)c3cc(O)ccc3CC[C@@H]12 [PODOCARIC ACID] | > 50000 | > 50000 | – | > 50000 | > 50000 | – | – | – | – | –
CC1OC(Oc2cc3c(cc2-c2cc4c(cc2O)[C@@]2(C)CCC[C@](C)(C(=O)O)[C@@H]2CC4)CC[C@H]2[C@@](C)(C(=O)O)CCC[C@]32C)C(O)C(O)C1O (stereo partly specified) | – | – | – | – | – | Not Active | Not Active | Not Active | Not Active | –
C[C@]1(C(=O)O)CCC[C@]2(C)c3cc(OP(=O)(O)Oc4ccc5c(c4)[C@@]4(C)CCC[C@](C)(C(=O)O)[C@@H]4CC5)ccc3CC[C@@H]12 | – | – | – | – | – | Not Active | Not Active | Not Active | Not Active | –
CC(C)CC[C@@H](O)[C@@H](C)[C@H]1CC[C@H]2[C@@H]3CC=C4C[C@@H](O)CC[C@]4(C)[C@H]3CC[C@]12C [22(R)-HYDROXYCHOLESTEROL] | – | 15000 | – | 15000 | – | – | – | – | – | inhibition [10]: 70%; inhibition [11]: 60%
CC(=O)Oc1ccc2c(c1)[C@@]1(C)CCCC(C)(C(=O)OC(=O)[C@@]3(C)CCC[C@]4(C)c5cc(OC(C)=O)ccc5CC[C@@H]34)[C@@H]1CC2 (stereo partly specified) | 2 | 2 | 10 | 2 | 2 | – | – | – | – | EC50 [12]: 10 nM
